From US9605004B2, “Chemical compounds” (SYNGENTA LIMITED, priority 2013, dated 2017)

What was measured:
[1] = system: a variety of test species; experiment: Pre-emergence herbicidal activity (Example 8a, Table 2); type: in vivo; design: key: 0 = no damage to plant, 5 = total damage to plant; conditions: application pre-emergence, rate 1000 g/ha, evaluated after 13 days
Outline: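 Pre-emergence spray, one day post-sowing; vehicle acetone/water (50:50) + 0.5% Tween 20, aqueous dilution. Glasshouse 24/16 °C, 14 h light, 65% RH, watering twice daily. Score at 13 d on 0–5 scale, 5 = total damage.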

[2] = system: a variety of test species; experiment: Post-emergence herbicidal activity (Example 8b, Table 3); type: in vivo; conditions: application post-emergence, rate 1000 g/ha, evaluated after 13 days, scale 0-5; for Herbicidal damage score, ZEAMX: Zea mays; for Herbicidal damage score, ABUTH: Abutilon theophrasti; for Herbicidal damage score, ALOMY: Alopecurus myosuroides; for Herbicidal damage score, AMARE: Amaranthus retroflexus; for Herbicidal damage score, ECHCG: Echinochloa crus-galli; for Herbicidal damage score, SETFA: Setaria faberi
Outline: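 Damage was rated 0-5 (5 = total) 13 days after a post-emergence spray of acetone/water (50:50) plus 0.5% Tween 20 formulation. Plants were sprayed at 8 days' growth and kept at 24/16° C, 14 h light, 65% humidity, watered twice daily.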

CC1=C(Cl)C(=O)N(c2cc(I)n(C)n2)C1O (stereo not drawn) [Compound B16]
Pre-emergence herbicidal activity, damage score ABUTH [1]: 4 | Pre-emergence herbicidal activity, damage score ALOMY [1]: 4 | Pre-emergence herbicidal activity, damage score ECHCG [1]: 4 | Pre-emergence herbicidal activity, damage score ZEAMX [1]: 3 | Herbicidal damage score, ZEAMX [2]: 4

CC1=C(Cl)C(=O)N(c2cc(/C=C/C(C)(C)C)n(C)n2)C1O (stereo not drawn) [Compound B17]
Pre-emergence herbicidal activity, damage score ABUTH [1]: 2 | Pre-emergence herbicidal activity, damage score ALOMY [1]: 2 | Pre-emergence herbicidal activity, damage score AMARE [1]: 4 | Pre-emergence herbicidal activity, damage score ECHCG [1]: 4 | Pre-emergence herbicidal activity, damage score SETFA [1]: 3 | Pre-emergence herbicidal activity, damage score ZEAMX [1]: 2 | Herbicidal damage score, ABUTH [2]: 5 | Herbicidal damage score, ALOMY [2]: 3 | Herbicidal damage score, AMARE [2]: 5 | Herbicidal damage score, ECHCG [2]: 5 | Herbicidal damage score, SETFA [2]: 5 | Herbicidal damage score, ZEAMX [2]: 1

CC1=C(Cl)C(=O)N(c2cc(Cl)n(C)n2)C1O (stereo not drawn) [Compound B18]
Pre-emergence herbicidal activity, damage score ABUTH [1]: 4 | Pre-emergence herbicidal activity, damage score ALOMY [1]: 3 | Pre-emergence herbicidal activity, damage score AMARE [1]: 5 | Pre-emergence herbicidal activity, damage score ECHCG [1]: 4 | Pre-emergence herbicidal activity, damage score SETFA [1]: 5 | Pre-emergence herbicidal activity, damage score ZEAMX [1]: 2 | Herbicidal damage score, ABUTH [2]: 5 | Herbicidal damage score, ALOMY [2]: 5 | Herbicidal damage score, AMARE [2]: 5 | Herbicidal damage score, ECHCG [2]: 5 | Herbicidal damage score, SETFA [2]: 5 | Herbicidal damage score, ZEAMX [2]: 5

CC(C)=Cc1cc(N2C(=O)C(Cl)=C(C)C2O)nn1C (stereo not drawn) [Compound B20]
Pre-emergence herbicidal activity, damage score ABUTH [1]: 4 | Pre-emergence herbicidal activity, damage score ALOMY [1]: 2 | Pre-emergence herbicidal activity, damage score AMARE [1]: 4 | Pre-emergence herbicidal activity, damage score ECHCG [1]: 4 | Pre-emergence herbicidal activity, damage score SETFA [1]: 4 | Pre-emergence herbicidal activity, damage score ZEAMX [1]: 2 | Herbicidal damage score, ALOMY [2]: 4 | Herbicidal damage score, ZEAMX [2]: 2

C/C=C/c1cc(N2C(=O)C(Cl)=C(C)C2O)nn1C (stereo not drawn) [Compound B21]
Pre-emergence herbicidal activity, damage score ABUTH [1]: 2 | Pre-emergence herbicidal activity, damage score ALOMY [1]: 3 | Pre-emergence herbicidal activity, damage score AMARE [1]: 4 | Pre-emergence herbicidal activity, damage score ECHCG [1]: 4 | Pre-emergence herbicidal activity, damage score SETFA [1]: 3 | Pre-emergence herbicidal activity, damage score ZEAMX [1]: 0 | Herbicidal damage score, ABUTH [2]: 4 | Herbicidal damage score, ALOMY [2]: 2 | Herbicidal damage score, AMARE [2]: 4 | Herbicidal damage score, ECHCG [2]: 4 | Herbicidal damage score, SETFA [2]: 5 | Herbicidal damage score, ZEAMX [2]: 0

CC(C)=CCc1cc(N2C(=O)C(Cl)=C(C)C2O)nn1C (stereo not drawn) [Compound B22]
Pre-emergence herbicidal activity, damage score ABUTH [1]: 0 | Pre-emergence herbicidal activity, damage score ALOMY [1]: 0 | Pre-emergence herbicidal activity, damage score ECHCG [1]: 0 | Pre-emergence herbicidal activity, damage score SETFA [1]: 0 | Pre-emergence herbicidal activity, damage score ZEAMX [1]: 0 | Herbicidal damage score, ABUTH [2]: 3 | Herbicidal damage score, ALOMY [2]: 0 | Herbicidal damage score, AMARE [2]: 0 | Herbicidal damage score, ECHCG [2]: 2 | Herbicidal damage score, ZEAMX [2]: 2

C=CCC(C)(C)c1cc(N2C(=O)C(Cl)=C(C)C2O)nn1C (stereo not drawn) [Compound B23]
Pre-emergence herbicidal activity, damage score ALOMY [1]: 4 | Pre-emergence herbicidal activity, damage score ECHCG [1]: 4 | Pre-emergence herbicidal activity, damage score ZEAMX [1]: 4 | Herbicidal damage score, ZEAMX [2]: 4

CC1=C(Cl)C(=O)N(c2cc(Cc3ccccc3)n(C)n2)C1O (stereo not drawn) [Compound B24]
Pre-emergence herbicidal activity, damage score ABUTH [1]: 3 | Pre-emergence herbicidal activity, damage score ALOMY [1]: 3 | Pre-emergence herbicidal activity, damage score AMARE [1]: 3 | Pre-emergence herbicidal activity, damage score ECHCG [1]: 3 | Pre-emergence herbicidal activity, damage score SETFA [1]: 3 | Pre-emergence herbicidal activity, damage score ZEAMX [1]: 0 | Herbicidal damage score, ABUTH [2]: 5 | Herbicidal damage score, ALOMY [2]: 4 | Herbicidal damage score, AMARE [2]: 5 | Herbicidal damage score, ECHCG [2]: 5 | Herbicidal damage score, SETFA [2]: 5 | Herbicidal damage score, ZEAMX [2]: 1

CC1=C(Cl)C(=O)N(c2cc(C#CC(C)(C)C)n(C)n2)C1O (stereo not drawn) [Compound B25]
Pre-emergence herbicidal activity, damage score ABUTH [1]: 0 | Pre-emergence herbicidal activity, damage score ALOMY [1]: 0 | Pre-emergence herbicidal activity, damage score AMARE [1]: 2 | Pre-emergence herbicidal activity, damage score ECHCG [1]: 0 | Pre-emergence herbicidal activity, damage score SETFA [1]: 0 | Pre-emergence herbicidal activity, damage score ZEAMX [1]: 0 | Herbicidal damage score, ABUTH [2]: 3 | Herbicidal damage score, ALOMY [2]: 1 | Herbicidal damage score, AMARE [2]: 3 | Herbicidal damage score, ECHCG [2]: 1 | Herbicidal damage score, SETFA [2]: 1 | Herbicidal damage score, ZEAMX [2]: 0

CC1=C(Cl)C(=O)N(c2cc(CCC(C)C)n(C)n2)C1O (stereo not drawn) [Compound B27]
Pre-emergence herbicidal activity, damage score ABUTH [1]: 3 | Pre-emergence herbicidal activity, damage score ALOMY [1]: 1 | Pre-emergence herbicidal activity, damage score AMARE [1]: 5 | Pre-emergence herbicidal activity, damage score ECHCG [1]: 4 | Pre-emergence herbicidal activity, damage score SETFA [1]: 3 | Pre-emergence herbicidal activity, damage score ZEAMX [1]: 2 | Herbicidal damage score, ABUTH [2]: 3 | Herbicidal damage score, ALOMY [2]: 1 | Herbicidal damage score, AMARE [2]: 2 | Herbicidal damage score, ECHCG [2]: 5 | Herbicidal damage score, SETFA [2]: 5 | Herbicidal damage score, ZEAMX [2]: 0

CCC1=C(Cl)C(=O)N(c2ccn(C)n2)C1O (stereo not drawn) [Compound B28]
Pre-emergence herbicidal activity, damage score ABUTH [1]: 0 | Pre-emergence herbicidal activity, damage score ALOMY [1]: 0 | Pre-emergence herbicidal activity, damage score AMARE [1]: 0 | Pre-emergence herbicidal activity, damage score ECHCG [1]: 0 | Pre-emergence herbicidal activity, damage score SETFA [1]: 0 | Pre-emergence herbicidal activity, damage score ZEAMX [1]: 0 | Herbicidal damage score, ABUTH [2]: 0 | Herbicidal damage score, ALOMY [2]: 0 | Herbicidal damage score, AMARE [2]: 0 | Herbicidal damage score, ECHCG [2]: 0 | Herbicidal damage score, SETFA [2]: 0 | Herbicidal damage score, ZEAMX [2]: 0

CC1=C(Cl)C(=O)N(c2cc(C#CC(C)C)n(C)n2)C1O (stereo not drawn) [Compound B29]
Pre-emergence herbicidal activity, damage score ABUTH [1]: 0 | Pre-emergence herbicidal activity, damage score ALOMY [1]: 0 | Pre-emergence herbicidal activity, damage score AMARE [1]: 2 | Pre-emergence herbicidal activity, damage score ECHCG [1]: 0 | Pre-emergence herbicidal activity, damage score SETFA [1]: 0 | Pre-emergence herbicidal activity, damage score ZEAMX [1]: 0 | Herbicidal damage score, ABUTH [2]: 0 | Herbicidal damage score, ALOMY [2]: 0 | Herbicidal damage score, AMARE [2]: 0 | Herbicidal damage score, ECHCG [2]: 2 | Herbicidal damage score, SETFA [2]: 2 | Herbicidal damage score, ZEAMX [2]: 0

CC1=C(Cl)C(=O)N(c2cc(C#CCC(C)C)n(C)n2)C1O (stereo not drawn) [Compound B30]
Pre-emergence herbicidal activity, damage score ABUTH [1]: 0 | Pre-emergence herbicidal activity, damage score ALOMY [1]: 0 | Pre-emergence herbicidal activity, damage score AMARE [1]: 2 | Pre-emergence herbicidal activity, damage score ECHCG [1]: 0 | Pre-emergence herbicidal activity, damage score SETFA [1]: 0 | Pre-emergence herbicidal activity, damage score ZEAMX [1]: 0 | Herbicidal damage score, ABUTH [2]: 3 | Herbicidal damage score, ALOMY [2]: 0 | Herbicidal damage score, AMARE [2]: 3 | Herbicidal damage score, ECHCG [2]: 0 | Herbicidal damage score, SETFA [2]: 2 | Herbicidal damage score, ZEAMX [2]: 0

CCOC(C)(CC)c1cc(N2C(=O)C(Cl)=C(C)C2O)nn1C (stereo not drawn) [Compound B32]
Pre-emergence herbicidal activity, damage score ABUTH [1]: 5 | Pre-emergence herbicidal activity, damage score ALOMY [1]: 4 | Pre-emergence herbicidal activity, damage score AMARE [1]: 5 | Pre-emergence herbicidal activity, damage score ECHCG [1]: 5 | Pre-emergence herbicidal activity, damage score SETFA [1]: 5 | Pre-emergence herbicidal activity, damage score ZEAMX [1]: 4 | Herbicidal damage score, ABUTH [2]: 5 | Herbicidal damage score, ALOMY [2]: 5 | Herbicidal damage score, AMARE [2]: 5 | Herbicidal damage score, ECHCG [2]: 5 | Herbicidal damage score, SETFA [2]: 5 | Herbicidal damage score, ZEAMX [2]: 4
